Test results taken from paper PMC11184559, “Identification and Validation of Compounds Targeting Leishmania major Leucyl-Aminopeptidase M17” (ACS Infectious Diseases, 2024).

System: RAW 264.7 murine macrophages
Conditions: 100 μM, 48 h, MTT
Description: Blank contains only culture medium. […] Each assay was developed in triplicate.

COc1ccc(Cc2c(N)nc(-c3ccccn3)nc2N)cc1 [DDD00057570]
Maximum inhibitory effect, RAW 264.7 macrophage cell line: 52%
